# Laboratory results taken from US8287918B2, “Medicament for treating lung cancer” (Dainippon Sumitomo Pharma Co., Ltd., priority 2001, dated 2012).
# Where a name gives a salt, the structure may show the parent alone. Read-outs that look alike come from different tables or passages of the source.
# Experiments:
# [1] = tested on: Human small cell lung cancer LX-1 cell strain; assay: Antitumor activity against subcutaneously transplanted LX-1 tumor in nude mice; format: in vivo; details: single agent at maximum tolerated dose (amrubicin hydrochloride 25 mg/kg; cisplatin 10 mg/kg), single intravenous administration, measured for 23 days
# Description: Human small cell lung cancer LX-1 cell strain was subcutaneously transplanted to nude mice (80 animals) at 5 weeks of age. After 15 days from the tumor transplantation, 36 animals having a tumor volume of about 200 to 500 mm^3 were allotted to 6 groups consisting of 6 animals per group. On the same day, the animals received intravenous administration, respectively, of physiological saline for “vehicle group”, the maximum tolerated dose of amrubicin hydrochloride (25 mg/kg) for “an amrubicin hydrochloride alone administration group”, the maximum tolerated dose of cisplatin (10 mg/kg) for “cisplatin alone administration group”, 0.5 times of the maximum tolerated dose of amrubicin hydrochloride and 0.5 times of the maximum tolerated dose of cisplatin for “combined administration group (0.5×MTD)”, 0.8 times of the maximum tolerated dose of amrubicin hydrochloride and 0.8 times of the maximum tolerated dose of cisplatin for “combined administration group (0.8×MTD)”, the maximum tolerated dose of amrubicin hydrochloride and the maximum tolerated dose of cisplatin for “combined administration group (1×MTD)”. Thereafter, tumor volume and body weight of the mice were measured for 23 days. […]
# The minimum T/C % was calculated as follows: […]
# [2] = humans, cited from earlier work
# [3] = rabbit chronic experimental model; Invest. New Drug, 15, 219-225 (1997); cited from earlier work
# tumor cells = details: Cancer Chemothr. Pharmacol., 30, 51-57 (1992); cited from earlier work
structure (smiles),measurement,setting,value
CC(=O)[C@]1(N)Cc2c(O)c3c(c(O)c2[C@@H](OC2CC(O)C(O)CO2)C1)C(=O)c1ccccc1C3=O (stereo partly shown) [amrubicin hydrochloride],Minimum T/C %,[1],55%
same,maximum tolerated dose,[2]; administration in 3 continuous days,50 mg/m^2 per day
same,maximum tolerated dose,[2]; once a day single dose,130 mg/m^2
"CC(=O)[C@]1(N)Cc2c(O)c3c(c(O)c2[C@@H](O[C@H]2C[C@H](O)[C@H](O)CO2)C1)C(=O)c1ccccc1C3=O [amrubicin, (+)-(7S,9S)-9-acetyl-9-amino-7-[(2-deoxy-β-D-erythro-pentopyranosyl)oxy]-7,8,9,10-tetrahydro-6,11-dihydroxy-5,12-naphthacenedione]",cardiac toxicity compared with doxorubicin,[3],far weaker than doxorubicin
CC(O)[C@]1(N)Cc2c(O)c3c(c(O)c2[C@@H](O[C@H]2C[C@H](O)[C@H](O)CO2)C1)C(=O)c1ccccc1C3=O (stereo partly shown) [amrubicinol],inhibitory activity against growth of tumor cells compared with amrubicin,tumor cells,considerably stronger
"N.N.[Cl][Pt][Cl] [cisplatin, cis-diammin dichloroplatinum]",Minimum T/C %,[1],68%
same,maximum tolerated dose,[2],90 mg/m^2
